Test results as given in ChEMBL document CHEMBL1201862, “PubChem BioAssay data set” (2004).
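These data come from cells grown in 96-well plates and exposed to compound for 48 hours at five concentrations. GI50 = concentration required for 50% inhibition of growth.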 Calls of active or inactive are those of the source. Cut-off read from the data, not from the text of the source: active = GI50 up to about 1.1 µM and inactive = higher.

Experiments:
Experiment in all cases: inhibition of tumour cell growth, NCI panel, 48 h
HCT-116 = system: HCT-116
T47D = system: T47D
U-251 = system: U-251
M14 = system: M14
MDA-N = system: MDA-N
HT-29 = system: HT-29
NCI-H460 = system: NCI-H460
K562 = system: K562
TK-10 = system: TK-10
OVCAR-3 = system: OVCAR-3
PC-3 = system: PC-3
NCI-H226 = system: NCI-H226
SW-620 = system: SW-620
A498 = system: A498
NCI-H522 = system: NCI-H522
SK-MEL-28 = system: SK-MEL-28
SN12C = system: SN12C
OVCAR-5 = system: OVCAR-5
RXF 393 = system: RXF 393

Compound | GI50 (HCT-116) | GI50 (T47D) | GI50 (U-251) | GI50 (M14) | GI50 (MDA-N) | GI50 (HT-29) | GI50 (NCI-H460) | GI50 (K562) | GI50 (TK-10) | GI50 (OVCAR-3) | GI50 (PC-3) | GI50 (NCI-H226) | GI50 (SW-620) | GI50 (A498) | GI50 (NCI-H522) | GI50 (SK-MEL-28) | GI50 (SN12C) | GI50 (OVCAR-5) | GI50 (RXF 393)
COc1ccc(/N=C2\C(=O)Nc3ccc(Br)cc32)cc1 | 14.2 µM (inactive) | 18.3 µM (inactive) | 22.9 µM (inactive) | 17.5 µM (inactive) | 13.9 µM (inactive) | 23.4 µM (inactive) | 21.8 µM (inactive) | 8.67 µM (inactive) | 23.6 µM (inactive) | 21.7 µM (inactive) | 25.3 µM (inactive) | 16.2 µM (inactive) | 16 µM (inactive) | 38.8 µM (inactive) | 9.38 µM (inactive) | 31.3 µM (inactive) | 17.2 µM (inactive) | 23.2 µM (inactive) | 18.2 µM (inactive)
COc1ccc(C2CC(c3c(O)ccc4ccccc34)=NN2C(C)=O)cc1OC (stereo not drawn) | 15.3 µM (inactive) | 34.6 µM (inactive) | 29.6 µM (inactive) | 24.1 µM (inactive) | 20.7 µM (inactive) | 40 µM (inactive) | 28.1 µM (inactive) | 13.7 µM (inactive) | 53.3 µM (inactive) | 23.2 µM (inactive) | 23.6 µM (inactive) | 36.2 µM (inactive) | 32.9 µM (inactive) | 24.3 µM (inactive) | 31.7 µM (inactive) | 28.8 µM (inactive) | 26.5 µM (inactive) | 40.6 µM (inactive) | 24.1 µM (inactive)
C=C=C(CC1CCCCC1=O)S(=O)(=O)c1ccccc1 (stereo not drawn) | 2.65 µM (inactive) | > 10 µM (inactive) | > 10 µM (inactive) | 3.12 µM (inactive) | > 7.13 µM (inactive) | > 10 µM (inactive) | > 10 µM (inactive) | 1.69 µM (inactive) | > 10 µM (inactive) | > 10 µM (inactive) | > 10 µM (inactive) | > 10 µM (inactive) | 2.86 µM (inactive) | > 10 µM (inactive) | 0.245 µM (active) | > 10 µM (inactive) | 7.41 µM (inactive) | > 10 µM (inactive) | > 9.62 µM (inactive)
Cc1cc(N)ccc1/N=N\c1ccc(S(=O)(=O)CCOS(=O)(=O)O)cc1 | 0.34 µM (active) | 12.2 µM (inactive) | 3.05 µM (inactive) | 0.513 µM (active) | 0.282 µM (active) | 0.767 µM (active) | 3.44 µM (inactive) | 0.352 µM (active) | 14 µM (inactive) | 3.45 µM (inactive) | 0.292 µM (active) | 3.37 µM (inactive) | 0.368 µM (active) | 11.2 µM (inactive) | 0.274 µM (active) | 1.69 µM (inactive) | 0.463 µM (active) | 20.3 µM (inactive) | 10.8 µM (inactive)
COc1cccc(-c2cc(O)c3c(C)cc(C)nc3n2)c1 | 0.395 µM (active) | 14.5 µM (inactive) | 0.526 µM (active) | 0.406 µM (active) | 0.067 µM (active) | 0.34 µM (active) | 0.455 µM (active) | 0.158 µM (active) | 40.8 µM (inactive) | 0.228 µM (active) | 0.304 µM (active) | 0.394 µM (active) | 0.333 µM (active) | 0.419 µM (active) | 0.521 µM (active) | 0.83 µM (active) | 0.845 µM (active) | 2.57 µM (inactive) | 1.29 µM (inactive)
CC(C)c1cc(C(F)(F)F)nc(NNc2nc(C(C)C)cc(C(F)(F)F)n2)n1 | 93.8 µM (inactive) | > 100 µM (inactive) | 45.8 µM (inactive) | 67.9 µM (inactive) | > 100 µM (inactive) | > 100 µM (inactive) | 62.8 µM (inactive) | > 100 µM (inactive) | 19.1 µM (inactive) | 17.1 µM (inactive) | > 100 µM (inactive) | > 100 µM (inactive) | > 100 µM (inactive) | > 100 µM (inactive) | > 100 µM (inactive) | > 100 µM (inactive) | > 100 µM (inactive) | > 100 µM (inactive) | 32.4 µM (inactive)
O=C(O)C(O)C(O)C(O)C(O)CO.[Ba+2] (stereo not drawn) | > 100 µM (inactive) | > 100 µM (inactive) | > 100 µM (inactive) | > 100 µM (inactive) | > 100 µM (inactive) | > 100 µM (inactive) | > 100 µM (inactive) | > 100 µM (inactive) | > 100 µM (inactive) | > 100 µM (inactive) | > 100 µM (inactive) | > 100 µM (inactive) | > 100 µM (inactive) | > 100 µM (inactive) | > 100 µM (inactive) | > 100 µM (inactive) | > 100 µM (inactive) | > 100 µM (inactive) | > 100 µM (inactive)
